Reference: the CheMixHub viscosity set

Assay: xn = mol fraction of the nth substance listed

COC(=O)CC(C)=O + CCCCOC(C)=O
viscosity [mPa·s], 101.33 kPa
Settings | x1 = 0.1019 | x1 = 0.2013 | x1 = 0.3015 | x1 = 0.4035 | x1 = 0.5006 | x1 = 0.6004 | x1 = 0.7005 | x1 = 0.8087 | x1 = 0.8989
298.15 K | 0.719 | 0.768 | 0.826 | 0.895 | 0.969 | 1.055 | 1.163 | 1.289 | 1.407
303.15 K | 0.672 | 0.716 | 0.768 | 0.83 | 0.896 | 0.973 | 1.068 | 1.181 | 1.284
308.15 K | 0.629 | 0.669 | 0.717 | 0.774 | 0.832 | 0.901 | 0.987 | 1.085 | 1.179

CCCCCCCCCCCCBr + BrC(Br)C(Br)Br
101 kPa
Settings | viscosity [mPa·s]
298.08 K, x1 = 0.1586 | 7.196
298.08 K, x1 = 0.3004 | 5.936
298.08 K, x1 = 0.4493 | 5.091
298.08 K, x1 = 0.6166 | 4.392
298.08 K, x1 = 0.7772 | 3.877
303.1 K, x1 = 0.1376 | 6.506
303.1 K, x1 = 0.2855 | 5.399
303.1 K, x1 = 0.4255 | 4.58
303.1 K, x1 = 0.6541 | 3.787
303.1 K, x1 = 0.7773 | 3.437
308.11 K, x1 = 0.1363 | 5.669
308.11 K, x1 = 0.289 | 4.673
308.11 K, x1 = 0.4415 | 4.027
308.11 K, x1 = 0.6215 | 3.498
308.11 K, x1 = 0.7595 | 3.147
313.11 K, x1 = 0.1456 | 5.011
313.11 K, x1 = 0.2924 | 4.238
313.11 K, x1 = 0.4286 | 3.667
313.11 K, x1 = 0.634 | 3.093
313.11 K, x1 = 0.782 | 2.781

CCCCCCCCCCCC(=O)OC + CCCCCCCCCCCC
viscosity [mPa·s], 100 kPa
Settings | x2 = 0.0991 | x2 = 0.2004 | x2 = 0.3006 | x2 = 0.3991 | x2 = 0.5003 | x2 = 0.6 | x2 = 0.6997 | x2 = 0.8005 | x2 = 0.8995
293.15 K | 2.863 | 2.631 | 2.435 | 2.242 | 2.09 | 1.931 | 1.789 | 1.671 | 1.564
298.15 K | 2.554 | 2.356 | 2.185 | 2.009 | 1.883 | 1.749 | 1.624 | 1.514 | 1.425
303.15 K | 2.296 | 2.126 | 1.975 | 1.83 | 1.71 | 1.595 | 1.485 | 1.391 | 1.308
308.15 K | 2.081 | 1.93 | 1.797 | 1.671 | 1.563 | 1.461 | 1.363 | 1.28 | 1.205
313.15 K | 1.896 | 1.763 | 1.644 | 1.526 | 1.436 | 1.344 | 1.257 | 1.183 | 1.116
318.15 K | 1.735 | 1.616 | 1.511 | 1.402 | 1.318 | 1.243 | 1.164 | 1.098 | 1.037
323.15 K | 1.594 | 1.489 | 1.395 | 1.299 | 1.223 | 1.153 | 1.082 | 1.022 | 0.967

COC(=O)CC(C)=O + CCOC(C)=O
viscosity [mPa·s], 101.33 kPa
Settings | x1 = 0.0001 | x1 = 0.1006 | x1 = 0.1979 | x1 = 0.2962 | x1 = 0.3988 | x1 = 0.4978 | x1 = 0.5934 | x1 = 0.6964 | x1 = 0.7983 | x1 = 0.9006
298.15 K | 0.433 | 0.488 | 0.551 | 0.624 | 0.711 | 0.81 | 0.916 | 1.051 | 1.195 | 1.376
303.15 K | – | 0.462 | 0.519 | 0.587 | 0.666 | 0.755 | 0.849 | 0.97 | 1.099 | 1.258
308.15 K | – | 0.438 | 0.491 | 0.553 | 0.629 | 0.706 | 0.792 | 0.9 | 1.015 | 1.155

CC(=O)N(C(C)C)C(C)C + O
298.16 K, 101 kPa
Settings | viscosity [mPa·s]
x2 = 0.0812 | 2.4
x2 = 0.2041 | 2.83
x2 = 0.3933 | 3.61
x2 = 0.5827 | 4.68
x2 = 0.6893 | 5.21
x2 = 0.7296 | 5.3
x2 = 0.7747 | 5.26
x2 = 0.8218 | 4.96
x2 = 0.856 | 4.59

CCCCCCC(=O)O + c1ccccc1
298.15 K, 101 kPa
Settings | viscosity [mPa·s]
x1 = 0.03 | 0.631
x1 = 0.063 | 0.666
x1 = 0.096 | 0.705
x1 = 0.13 | 0.752
x1 = 0.29 | 0.99
x1 = 0.38 | 1.168
x1 = 0.47 | 1.49
x1 = 0.71 | 2.3

CCOC(C)=O + O
298.15 K, 101 kPa
Settings | viscosity [mPa·s]
x1 = 0.00139 | 0.9095
x1 = 0.001837 | 0.9129
x1 = 0.003766 | 0.9354
x1 = 0.006372 | 0.9652
x1 = 0.006895 | 0.9678
x1 = 0.01022 | 1.004
x1 = 0.01327 | 1.036
x1 = 0.8902 | 0.4495
x1 = 0.9238 | 0.4395
x1 = 0.9579 | 0.4312

CCOc1ccccc1 + CCCCCCCCO
viscosity [mPa·s], 101.3 kPa
Settings | x1 = 0.1001 | x1 = 0.1976 | x1 = 0.2997 | x1 = 0.4014 | x1 = 0.4996 | x1 = 0.6027 | x1 = 0.7022 | x1 = 0.8015 | x1 = 0.9016
293.15 K | 6.96 | 5.353 | 4.171 | 3.317 | 2.691 | 2.194 | 1.86 | 1.63 | 1.491
298.15 K | 5.929 | 4.669 | 3.644 | 2.894 | 2.361 | 1.947 | 1.68 | 1.502 | 1.36
308.15 K | 4.308 | 3.441 | 2.698 | 2.152 | 1.742 | 1.436 | 1.234 | 1.111 | 1.042
318.15 K | 3.31 | 2.701 | 2.153 | 1.7 | 1.386 | 1.143 | 0.9913 | 0.9148 | 0.8795

COC(=O)CC(C)=O + CO
viscosity [mPa·s], 101.3 kPa
Settings | x1 = 0.1017 | x1 = 0.1887 | x1 = 0.3013 | x1 = 0.4048 | x1 = 0.5038 | x1 = 0.6056 | x1 = 0.7015 | x1 = 0.8024 | x1 = 0.8994
298.15 K | 0.599 | 0.662 | 0.757 | 0.858 | 0.954 | 1.064 | 1.163 | 1.288 | 1.413
303.15 K | 0.563 | 0.618 | 0.704 | 0.793 | 0.879 | 0.978 | 1.066 | 1.176 | 1.288
308.15 K | 0.525 | 0.578 | 0.657 | 0.737 | 0.815 | 0.902 | 0.984 | 1.082 | 1.18
